Ki and Selectivity data for 14 compounds are collected here from ChEMBL document CHEMBL1146661, “The effect of 6-substituted-4',4"-difluorobenztropines on monoamine transporters and the muscarinic M1 receptor” (Bioorg Med Chem Lett, 2004).

Experiment [1] addresses Sodium-dependent dopamine transporter (Rattus norvegicus, UniProt P23977). Description: Displacement of [3H]WIN-35428 from dopamine transporter of rat brain membrane. Type of experiment: tissue-based. (Loss of bound radioactivity is the signal in a displacement assay; it reports binding, not function.)
The target in experiment [2] is T1, Muscarinic acetylcholine receptor M1 (Rattus norvegicus, UniProt P08482).
T1 sequence (P08482 whole entry): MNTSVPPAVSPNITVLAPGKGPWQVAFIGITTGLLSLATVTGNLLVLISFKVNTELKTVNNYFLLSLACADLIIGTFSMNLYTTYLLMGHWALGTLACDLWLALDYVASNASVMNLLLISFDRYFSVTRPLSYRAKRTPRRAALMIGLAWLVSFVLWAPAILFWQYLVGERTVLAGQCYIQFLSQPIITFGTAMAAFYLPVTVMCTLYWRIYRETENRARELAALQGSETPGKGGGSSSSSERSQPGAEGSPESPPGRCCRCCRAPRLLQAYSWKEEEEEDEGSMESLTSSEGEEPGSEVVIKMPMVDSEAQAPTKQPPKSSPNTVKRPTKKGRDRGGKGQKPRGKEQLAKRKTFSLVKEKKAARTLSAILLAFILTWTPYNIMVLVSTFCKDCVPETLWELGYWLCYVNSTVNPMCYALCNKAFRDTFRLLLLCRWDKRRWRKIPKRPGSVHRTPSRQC
The experiment is described as follows: Displacement of [3H]pirenzepine from muscarinic acetylcholine receptor M1 of rat brain membrane.

Experiment [3] has as its target Norepinephrine transporter (Rattus norvegicus, UniProt Q9WTR4). Description: Displacement of [3H]-[…] from norepinephrine transporter of rat brain membrane. Type of experiment: tissue-based.
Experiment [4] deals with T2, Sodium-dependent serotonin transporter (Rattus norvegicus, UniProt P31652). The experiment is described as follows: Displacement of [3H]-citalopram from serotonin transporter of rat brain membrane. Type of experiment: tissue-based.
T2 sequence (P31652 whole entry): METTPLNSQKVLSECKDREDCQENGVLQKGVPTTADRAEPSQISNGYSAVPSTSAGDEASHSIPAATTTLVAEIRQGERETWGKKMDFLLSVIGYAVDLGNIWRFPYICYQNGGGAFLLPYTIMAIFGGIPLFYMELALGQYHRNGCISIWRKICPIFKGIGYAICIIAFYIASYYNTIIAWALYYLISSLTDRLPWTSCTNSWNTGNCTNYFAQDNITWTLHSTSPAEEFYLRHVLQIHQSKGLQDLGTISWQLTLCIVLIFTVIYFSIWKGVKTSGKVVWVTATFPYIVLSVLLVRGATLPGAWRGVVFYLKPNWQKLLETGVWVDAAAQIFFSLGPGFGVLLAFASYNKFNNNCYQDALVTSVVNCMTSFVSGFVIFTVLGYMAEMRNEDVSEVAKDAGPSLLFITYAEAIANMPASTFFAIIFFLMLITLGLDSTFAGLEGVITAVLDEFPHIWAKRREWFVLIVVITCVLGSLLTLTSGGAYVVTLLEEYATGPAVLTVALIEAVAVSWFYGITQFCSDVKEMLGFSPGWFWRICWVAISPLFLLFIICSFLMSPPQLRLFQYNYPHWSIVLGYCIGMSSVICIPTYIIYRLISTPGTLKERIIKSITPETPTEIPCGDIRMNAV
In experiment [5] the target is Monoamine transporters; Norepininephrine & dopamine (Rattus norvegicus) (UniProt P23977+Q9WTR4). Description: Relative affinity for dopamine and norepinephrine transporters. Type of experiment: protein assay.
Experiment [6] concerns the target Monoamine transporters; serotonin & dopamine (Rattus norvegicus) (UniProt P31652+P23977). Description: Relative affinity for dopamine and serotonin transporters. Type of experiment: protein assay.
Another experiment is filed under the species Rattus norvegicus. The experiment is described as follows: Relative affinity for dopamine transporter and muscarinic acetylcholine M1 receptor.
Experiment [7] deals with T2, Sodium-dependent serotonin transporter. The experiment is described as follows: Displacement of [3H]citalopram from serotonin transporter of rat brain membrane. Type of experiment: tissue-based.

The Ki is a dissociation constant, usually derived from enzyme kinetics or from competition with a known ligand. A high value points to weaker binding.

Sequence of Sodium-dependent dopamine transporter (P23977 whole entry): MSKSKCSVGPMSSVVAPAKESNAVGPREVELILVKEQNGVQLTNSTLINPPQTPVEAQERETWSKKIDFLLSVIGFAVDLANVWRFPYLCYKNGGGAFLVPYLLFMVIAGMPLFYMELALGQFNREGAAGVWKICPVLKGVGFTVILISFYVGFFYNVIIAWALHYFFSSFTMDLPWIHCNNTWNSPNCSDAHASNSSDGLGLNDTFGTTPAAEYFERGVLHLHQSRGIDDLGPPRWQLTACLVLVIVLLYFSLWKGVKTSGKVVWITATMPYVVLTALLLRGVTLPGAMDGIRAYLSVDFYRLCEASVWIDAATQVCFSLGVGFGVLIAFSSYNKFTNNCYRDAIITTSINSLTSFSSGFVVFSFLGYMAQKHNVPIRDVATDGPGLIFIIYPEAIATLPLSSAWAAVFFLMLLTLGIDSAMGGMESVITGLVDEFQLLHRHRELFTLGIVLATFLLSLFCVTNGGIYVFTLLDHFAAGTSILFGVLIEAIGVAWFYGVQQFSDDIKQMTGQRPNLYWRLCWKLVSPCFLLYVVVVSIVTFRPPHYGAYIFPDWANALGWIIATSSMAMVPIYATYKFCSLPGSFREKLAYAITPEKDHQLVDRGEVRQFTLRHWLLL
Sequence of Monoamine transporters; serotonin & dopamine (Rattus norvegicus) (P23977 whole entry, looked up): as the sequence (P23977 whole entry) above
Sequence of Monoamine transporters; serotonin & dopamine (Rattus norvegicus) (P31652 whole entry, looked up): as the sequence (P31652 whole entry) above
Sequence of Norepinephrine transporter (Q9WTR4 whole entry): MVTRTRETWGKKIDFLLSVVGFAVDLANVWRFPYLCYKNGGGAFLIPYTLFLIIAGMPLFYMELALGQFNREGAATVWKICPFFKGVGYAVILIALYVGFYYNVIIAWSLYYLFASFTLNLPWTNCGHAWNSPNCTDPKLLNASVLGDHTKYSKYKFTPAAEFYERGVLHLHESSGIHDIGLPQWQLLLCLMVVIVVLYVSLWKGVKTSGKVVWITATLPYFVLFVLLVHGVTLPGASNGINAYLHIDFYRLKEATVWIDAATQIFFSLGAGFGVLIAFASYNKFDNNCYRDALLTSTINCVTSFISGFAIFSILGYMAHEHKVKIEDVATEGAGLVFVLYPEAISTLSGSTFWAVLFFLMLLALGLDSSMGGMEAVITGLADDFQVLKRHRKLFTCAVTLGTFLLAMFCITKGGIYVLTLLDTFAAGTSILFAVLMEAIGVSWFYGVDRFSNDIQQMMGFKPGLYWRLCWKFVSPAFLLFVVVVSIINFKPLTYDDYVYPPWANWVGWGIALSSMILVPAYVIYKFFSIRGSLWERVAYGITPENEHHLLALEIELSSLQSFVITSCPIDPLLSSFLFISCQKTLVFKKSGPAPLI

Take `CC(C)COC(=O)[C@H]1CC2C[C@H](OC(c3ccc(F)cc3)c3ccc(F)cc3)CC1N2C` (stereo partly specified): the inhibition constant Ki in experiment [1] amounted to 148 nM; in experiment [2] it was 723 nM; in experiment [3], 6.61 µM; in experiment [4], 7.96 µM. Besides, the Selectivity is 45 in experiment [5], 54 in experiment [6] and 5 in the experiment listed under Rattus norvegicus.

Regarding `CN1C2CC(OC(c3ccc(F)cc3)c3ccc(F)cc3)CC1[C@H](O)C2` (stereo partly specified), the inhibitory constant (Ki) in experiment [1] came out at 31.3 nM; in experiment [2] it was 27 nM; in experiment [3], 6.39 µM; in experiment [4], 11.7 µM. In addition, the Selectivity is 204 in experiment [5], 374 in experiment [6] and 1 in the experiment listed under Rattus norvegicus.

With `CC(C)OC(=O)[C@H]1CC2C[C@H](OC(c3ccc(F)cc3)c3ccc(F)cc3)CC1N2C` (stereo partly specified), the Ki is 151 nM in experiment [1], 784 nM in experiment [2], 10.2 µM in experiment [3] and 14.8 µM in experiment [4]. The Selectivity in experiment [5] was 68; in experiment [6], 98; in the experiment filed under Rattus norvegicus, 5.

With `CN1C2CC(OC(c3ccc(F)cc3)c3ccc(F)cc3)CC1[C@@H](C(=O)O)C2` (stereo partly specified), the inhibition constant (Ki) in experiment [1] stood at 5.81 nM; in experiment [2], 46.8 nM; in experiment [3], 1.38 µM; in experiment [4] it was 8.29 µM. The Selectivity in experiment [5] was 238; in experiment [6], 1430; in the experiment filed under Rattus norvegicus it was 8.

Turning to `CN1C2CC(OC(c3ccc(F)cc3)c3ccc(F)cc3)CC1[C@@H](O)C2` (stereo partly specified), the Ki in experiment [1] amounted to 6.28 nM; in experiment [2] it was 48.3 nM; in experiment [3], 1.3 µM; in experiment [7], 9.09 µM. In addition, the Selectivity was 207 in experiment [5], 1450 in experiment [6] and 8 in the experiment listed under Rattus norvegicus.

Consider `COS(=O)(=O)[C@H]1CC2C[C@H](OC(c3ccc(F)cc3)c3ccc(F)cc3)CC1N2C` (stereo partly specified), for which the Ki in experiment [1] came out at 81 nM; in experiment [2], 617 nM; in experiment [3] it was 6.88 µM; in experiment [4] it was 13.8 µM. Also, the Selectivity in experiment [5] turned out to be 85; in experiment [6], 170; in the experiment listed under Rattus norvegicus it was 8.

For the compound `COC(=O)[C@H]1CC2C[C@H](OC(c3ccc(F)cc3)c3ccc(F)cc3)CC1N2C` (stereo partly specified), the inhibition constant Ki in experiment [1] came out at 57.1 nM; in experiment [2] it was 432 nM; in experiment [3] it was 6.91 µM; in experiment [4], 16.5 µM. In addition, the Selectivity in experiment [5] amounted to 121; in experiment [6] it was 289; in the experiment listed under Rattus norvegicus, 8.

For the compound `CN1C2C[C@H](OC(c3ccc(F)cc3)c3ccc(F)cc3)CC1[C@@H](C(=O)OCCc1ccccc1)C2` (stereo partly specified), the inhibitory constant (Ki) in experiment [1] amounted to 171 nM; in experiment [2], 3480 nM; in experiment [3] it was 5.69 µM; in experiment [4], 7.96 µM. The Selectivity was determined as 33 in experiment [5], 47 in experiment [6] and 20 in the experiment filed under Rattus norvegicus.

As to `COC(=O)[C@@H]1C2CC[C@@H](C[C@@H]1OC(=O)c1ccccc1)N2C` (single isomer, unassigned) [COCAINE], the inhibition constant Ki in experiment [2] stood at 61400 nM.

In the case of `CN1C2C[C@H](OC(c3ccc(F)cc3)c3ccc(F)cc3)CC1[C@@H](C(=O)OCc1ccccc1)C2` (stereo partly specified), the inhibition constant Ki in experiment [1] is 119 nM; in experiment [2], 2270 nM; in experiment [3] it was 6.21 µM; in experiment [4], 5.85 µM. Moreover, the Selectivity stood at 52 in experiment [5], 49 in experiment [6] and 19 in the experiment listed under Rattus norvegicus.

Consider `CN1C2CCC1CC(OC(c1ccc(F)cc1)c1ccc(F)cc1)C2` (stereo unspecified) [DIFLUOROBENZTROPINE], for which, in experiment [3], the inhibitory constant (Ki) is 0.844 µM.

Turning to `CCOC(=O)[C@H]1CC2C[C@H](OC(c3ccc(F)cc3)c3ccc(F)cc3)CC1N2C` (stereo partly specified), the Ki worked out at 75.4 nM in experiment [1], 142 nM in experiment [2], 3.72 µM in experiment [3] and 14 µM in experiment [4]. For the same compound, the Selectivity in experiment [5] is 49; in experiment [6], 186; in the experiment filed under Rattus norvegicus, 2.

For the compound `O=C(Oc1ccccc1)[C@H]1CC2C[C@H](OC(c3ccc(F)cc3)c3ccc(F)cc3)CC1N2` (stereo partly specified), the inhibition constant Ki was determined as 175 nM in experiment [1], 8430 nM in experiment [2], 3.17 µM in experiment [3] and 4.44 µM in experiment [4]. In addition, the results for the Selectivity (in experiment [5]; in experiment [6]; in the experiment listed under Rattus norvegicus) were 18, 25 and 48, respectively.

Regarding `CN1C2C[C@H](OC(c3ccc(F)cc3)c3ccc(F)cc3)CC1[C@@H](C(=O)Oc1ccccc1)C2` (stereo partly specified), the Ki in experiment [1] was determined as 107 nM; in experiment [2], 552 nM; in experiment [3] it was 1.37 µM; in experiment [4], 3.73 µM. The Selectivity worked out at 13 in experiment [5], 35 in experiment [6] and 5 in the experiment filed under Rattus norvegicus.
